From US4650811A, “Ethenylphenol-indoles having antiarythmic utility” (Roussel Uclaf, priority 1984, dated 1987)

Key:
[1] = test system: disorders of the cardiac rhythm (aconitine) in rats; test: Anti-arrhythmic activity in rats (aconitine-induced disorders of the cardiac rhythm); type: in vivo, rat; details: intravenous, aconitine 10 μg/min five minutes after product, in comparison with controls
Procedure: Male rats weighing 300-350 g anesthetized by intraperitoneal route with 1.20 g/Kg of urethane were tracheotomized and submitted to artifical respiration (40-50 insufflations of 3 ml/minute). Needles were implanted sub-cutaneously to record the electro-cardiogram of the rats on the signal in derivation DII. The products under test were administered by intravenous route.
Five minutes after the product was administered, the jugular vein of the rats was perfused with 10 μg/min. of an aconitine solution and the time of appearance of disorders of the cardiac rhythm was noted. The results were expressed in percentage of the extension of the time of appearance of disorders of the cardiac rhythm in comparison with controls and as a function of the dose of the product under test.

mice = test: Acute toxicity after oral administration to mice; type: in vivo
Procedure: The lethal doses LD0 for the different test compounds were evaluated after oral administration to mice and the maximum dose not causing any mortality in 8 days was called LD0.

Rat caudal arteries = test: Anti-calcic activity in vitro: inhibition of K+-depolarized, Ca2+-induced contraction of rat caudal arteries; details: rat caudal artery, depolarized with 100 mM K+, Ca2+ 0.1 to 3.0 mM, 37° C.
Procedure: Rat caudal arteries were cut into a spiral and were attached to tension sensors and were kept in tanks of […] of Krebs buffer-sodium bicarbonate (NaCl: 120.8 mM, KCl: 5.9 mM, MgCl2 : 1.2 mM, NaH2 PO4 : 1.2 mM, NaHCO3 : 15.5 mM, glucose: 12.6 mM) at 37° C. gassed with a mixture of O2 : 95% - CO2 : 5%. The preparations were depolarized with a buffer solution with a concentration of 100 mM in K^+ ions (NaCl: 26.7 mM, KCl: 100 mM, MgCl2 : 1.2 mM, NaH2 PO4 : 1.2 mM, NaHCO3 : 15.5 mM, glucose: 12.6 mM). Calcium chloride was added in a volume of 250 μ1 to obtain a range of increasing concentrations of Ca^2+ ions from 0.1 to 3.0 mM. The contractions of the arteries were recorded and a control range was established in this way. The operation was repeated every 15 minutes with the Ca^2+ range of ions and the preparation was washed four times after each range.
When a stable response had been obtained, the operation with the range of Ca^2+ ions was carried out in the presence of different concentrations of the product under test until a stable response was obtained. The contractions of the arteries depend on the entry of the Ca^2+ ions into the cells of the smooth muscles and are caused by the depolarization of the smooth muscle by the K^+ ions and by the action of the noradrenaline liberated at the presynaptic level. By repeating the operation with the arteries denervated by the action of 6-OH dopamine, the specific action due to the noradrenaline was suppressed.

β1 - adrenergic receptor = target: T1, β1 - adrenergic receptor (Rattus norvegicus, UniProt P18090); test: β1 - adrenergic receptor affinity (3H dihydroalprenolol displacement, rat cortices); type: binding; details: ARL=100 CD/CX relative to propranolol; 3H dihydroalprenolol 10^-9 M, 37° C., 10 minutes
T1 construct: 10 cortices removed from the brains of rats; from tissue; host or cells: rat brain cortex, membrane preparation
Procedure: 10 cortices removed from the brains of rats weighing on the average 150 g were homogenized in 90 ml of 0.32 M sucrose and after centrifuging the homogenized mixture at 1,000 g for 20 minutes at 0° C., the supernatant was centrifugated at 30,000 g for 15 minutes at 0° C. to +4° C. The residue was suspended in 120 ml of Tris HCl 50 mM buffer pH 7.7 and centrifuged at 30,000 g for 15 minutes at 0° C. to +4° C. The new residue obtained was suspended in 480 ml of Krebs Tris HCl 50 mM buffer, 7.7 pH. Then, 2 ml of the suspension were incubated for 10 minutes at 37° C. in the presence of ^3 H dihydroalprenolol at a concentration of 10^-9 M:
(§1) (ii) with increasing concentrations of the product under test, or
(iii) to determine the non-specific fixation, with non-radioactive propranolol at a concentration of 10^-5 M.
The incubated suspensions were filtered on Whatman GF/C and the filters were washed three times with 5 ml of Krebs Tris HCl buffer pH 7.7 at 0° C. The radio-activity of the filters was measured by liquid scintillation. The affinity of the product for the adrenergic receptors was given relative to propranolol as reference product,
CD=concentration of propranolol inhibiting 50% of the specific fixation of the ^3 H dihydroalprenolol: CX=concentration of the product under test inhibiting 50% of the specific fixation of the ^3 H dihydroalprenolol.

α2 - adrenergic receptor = α2 - adrenergic receptor affinity (3H rauwolscine displacement, rat cortices); type: binding; details: ARL=100 CD/CX relative to phentolamine, 25° C., 45 minutes
Procedure: 10 cortices removed from the brains of male rats weighing on the average […] were homogenized in 90 ml of 0.32 M sucrose and after centrifuging the homogenized mixture at 1,000 g for 10 minutes at 0° C., the supernatant was centrifuged at 30,000 g for 10 minutes at 0° C. to +4° C. The residue was suspended in 240 ml of Tris HCl 50 mM buffer, pH 7.7 and centrifuged at 30,000 g for 15 minutes at 0° to +4° C. The new residue obtained was suspended in 480 ml of NaKPO4 50 mM buffer, pH 7.4. Then, 2 ml of suspension were incubated for 45 minutes at 25° C. in the presence of ^3 H rauwolscine at a concentration of […]:
as §1
(iii) to determine the non-specific fixation, with non-radioactive phentolamine at a concentration of 10^-5 M.
The incubated suspensions were filtered on Whatman GF/C and the filters were washed three times with 5 ml of NaKPO4 buffer, pH 7.4, at 0° C. The radio-activity of the filters was measured by liquid scintillation. The affinity of the product under test for the α2 - adrenergic receptors were given relative to phentolamine as reference product. CD=concentration of phentolamine inhibiting 50% of the specific fixation of ^3 H rauwolscine:
CX=concentration of the product under test inhibiting 50% of the specific fixation of ^3 H rauwolscine.

β2 - adrenergic receptor = target: T2, β2 - adrenergic receptor (Rattus norvegicus, UniProt P10608); test: β2 - adrenergic receptor affinity (3H dihydroalprenolol displacement, rat cerebelli); type: binding; details: ARL=100 CD/CX relative to propranolol; 3H dihydroalprenolol 10^-9 M, 37° C., 10 minutes
T2 construct: The cerebelli removed from the brains of male rats; from tissue; host or cells: rat cerebellum, membrane preparation
Procedure: The cerebelli removed from the brains of male rats weighing on the average 150 g were homogenized in 90 ml of 0.32 M sucrose and after centrifuging the homogenized mixture at 1,000 g for 20 minutes at 0° C., the supernatant was centrifuged at 30,000 g for 15 minutes at 0° C. to +4° C. The residue was suspended in 120 ml of Tris HCl 50 mM buffer pH 7.7, and centrifuged at 30,000 g for 15 minutes at 0° to +4° C. The new residue obtained was suspended in 480 ml of Krebs Tris HCl buffer, pH 7.7. 2 ml of the suspension were then incubated at 37° C. for 10 minutes in the presence of 3H dihydroalprenolol at a concentration of 10^-9 M:
(ii) with increasing concentrations of the product under test
(iii) to determine the non-specific fixation, with non-radio-active propranolol at a concentration of 10^-5 M. The incubated suspensions were filtered on Whatman GF/C and the filters were washed three times with 5 ml of Krebs Tris HCl buffer pH 7.7 at 0° C.
The radio-activity of the filters was measured by liquid scintillation. The affinity of the test product for β2 - adrenergic receptors was given relative to propranolol as reference product.
CD=concentration of propranolol inhibiting 50% of the specific fixation of ^3 H dihydroalprenolol:
CX=concentration of the product under test inhibiting 50% of the specific fixation of the ^3 H dihydroalprenolol.

[2] = test system: arterial pressure of male rats of Wistar strain; test: Hypotensive activity (carotid arterial pressure in anesthetized rats); type: in vivo, rat (Wistar); details: 1 mg/Kg, intravenous, vs initial control arterial pressure
Procedure: The hypotensive activity was studied on male rats of Wistar strain weighing about 300 g and anesthetized with 50 mg/Kg by intravenous route of sodium pentobarbital. The product tested was administered by intravenous route in the jugular vein and the pressure in the carotid artery was measured before and after administration of the product tested. The following table reports the variations expressed in percentage of the arterial pressure after administration of the product tested by comparison with the initial control arterial pressure.

T1 sequence (P18090 whole entry): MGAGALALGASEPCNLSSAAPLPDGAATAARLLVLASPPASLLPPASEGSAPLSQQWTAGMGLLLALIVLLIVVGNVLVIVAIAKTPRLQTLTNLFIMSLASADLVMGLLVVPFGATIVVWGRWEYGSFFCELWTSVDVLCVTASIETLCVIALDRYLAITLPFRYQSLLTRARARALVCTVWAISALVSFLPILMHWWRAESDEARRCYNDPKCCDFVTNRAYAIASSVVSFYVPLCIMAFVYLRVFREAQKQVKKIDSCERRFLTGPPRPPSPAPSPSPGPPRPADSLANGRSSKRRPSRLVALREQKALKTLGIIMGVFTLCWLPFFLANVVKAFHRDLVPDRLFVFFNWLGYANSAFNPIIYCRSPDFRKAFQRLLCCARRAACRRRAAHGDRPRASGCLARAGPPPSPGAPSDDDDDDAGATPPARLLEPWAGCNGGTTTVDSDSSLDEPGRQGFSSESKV
T2 sequence (P10608 whole entry): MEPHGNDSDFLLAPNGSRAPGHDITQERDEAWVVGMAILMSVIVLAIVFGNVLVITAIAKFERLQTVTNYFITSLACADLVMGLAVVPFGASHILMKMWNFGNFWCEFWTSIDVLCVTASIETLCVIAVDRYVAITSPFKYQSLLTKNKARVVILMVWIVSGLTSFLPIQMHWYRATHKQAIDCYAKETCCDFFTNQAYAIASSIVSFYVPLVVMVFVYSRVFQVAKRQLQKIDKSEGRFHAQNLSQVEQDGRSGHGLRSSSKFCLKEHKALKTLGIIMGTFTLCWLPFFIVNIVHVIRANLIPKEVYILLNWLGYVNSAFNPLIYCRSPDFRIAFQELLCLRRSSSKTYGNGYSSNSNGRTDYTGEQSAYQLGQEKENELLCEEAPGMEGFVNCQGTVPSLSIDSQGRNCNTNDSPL

SMILES	Percentage of extension of time of appearance of disorders of the cardiac rhythm ([1]; 5 mg/Kg)	LD0 (maximum dose not causing any mortality in 8 days) (mice)	IC50 (Rat caudal arteries)	ARL (relative affinity) (β1 - adrenergic receptor)	ARL (relative affinity) (α2 - adrenergic receptor)	ARL (relative affinity) (β2 - adrenergic receptor)	% Variation of the arterial pressure ([2]; 1 min. after administration)	% Variation of the arterial pressure ([2]; 5 min. after administration)	% Variation of the arterial pressure ([2]; 10 min. after administration)	% Variation of the arterial pressure ([2]; 30 min. after administration)	Percentage of extension of time of appearance of disorders of the cardiac rhythm ([1]; 10 mg/Kg)
CC(C)(C)NCC(O)COc1ccccc1CCc1cccc2[nH]ccc12 (stereo not drawn) [Example 8, 1-[(1,1-dimethylethyl)-amino]-3-[2-[2-(1H-indol-4-yl)-ethyl]-phenoxy]-2-propanol]	162%	> 400 mg/kg	1.5 µM	–	–	–	–	–	–	–	–
CC(C)(C)NCC(O)COc1ccc(/C=C/c2cccc3[nH]ccc23)cc1 (stereo not drawn) [Example 3, 1-[(1,1-dimethylethyl)-amino]-3-[4-[2-(1H-indol-4-yl)-ethenyl]-phenoxy]-2-propanol]	–	> 100 mg/kg	0.6 µM	0.8%	0.7%	0.1%	–	–	–	–	–
CC(C)(C)NCCOc1ccccc1/C=C/c1cccc2[nH]ccc12 [Example 11, N-(1,1-dimethylethyl)-2-[2-[2-(1H-indol-4-yl)-ethenyl]-phenoxy]-ethanamine (trans E)]	41%	200 mg/kg	–	–	–	–	–	–	–	–	–
CC(C)(C)NCCCOc1ccccc1CCc1cccc2[nH]ccc12 [Example 12, N-(1,1-dimethylethyl)-3-[2-[2-(1H-indol-4-yl)-ethyl]-phenoxy]-propanamine]	–	–	0.3 µM	–	–	–	–	–	–	–	–
CC(C)(C)NCC(O)COc1ccc(/C=C/c2cccc3c2CC(=O)N3)cc1 (stereo not drawn) [Example 5, 1,3-dihydro-4-[2-[4-[3-[(1,1-dimethylethyl)-amino]-2-hydroxypropoxy]-phenyl]-ethenyl]-2H-indol-2-one]	–	> 100 mg/kg	2.5 µM	–	–	–	–	–	–	–	–
CC(C)(C)NCC(O)COc1ccccc1/C=C/c1cccc2[nH]ccc12 (stereo not drawn) [Example 2, 1-[(1,1-dimethylethyl)-amino]-3-[2-[2-(1H-indol-4-yl)-ethenyl]-phenoxy]-2-propanol]	30%	> 100 mg/kg	1.2 µM	198%	–	172%	-17%	-10%	-10%	-14%	110%
CC(C)NCC(O)COc1ccccc1/C=C/c1cccc2[nH]ccc12 (stereo not drawn) [Example 1, 1-[2-[2-(1H-indol-4-yl)-ethenyl]-phenoxy]-3-[isopropyl-amino]-2-propanol]	–	> 100 mg/kg	4 µM	92.5%	0.1%	18%	-11%	-11%	-12%	-13%	–
CC(C)(C)NCCCOc1ccccc1/C=C/c1cccc2[nH]ccc12 [Example 6, N-(1,1-dimethylethyl)-3-[2-[2-(1H-indol-4-yl)-ethenyl]-phenoxy]-propanamine]	49%	> 400 mg/kg	2 µM	–	–	–	–	–	–	–	–
CC(C)NCC(O)COc1ccc(/C=C/c2cccc3[nH]ccc23)cc1 (stereo not drawn) [Example 4]	–	60 mg/kg	3.5 µM	1.0%	0.0%	0.03%	–	–	–	–	–
CC(C)(C)NCC(O)COc1ccccc1/C=C/c1cccc2c1CC(=O)N2 (stereo not drawn) [Example 9, 1,3-dihydro-4-[2-[2-[3-[(1,1-dimethylethyl)-amino]-2-hydroxypropoxy]-phenyl]-ethenyl]-2H-indol-2-one]	167%	–	1.4 µM	–	–	–	–	–	–	–	–
